Measured values: patent US8492310B2, “Herbicidal compositions containing benzoylpyrazole compounds” (priority 2008, dated 2013)
Read-outs that look alike come from different tables or passages of the source.

Key:
Assay type in all cases: in vivo
[1] = test system: crabgrass (Digitaria sanguinalis L.); test: Foliar treatment pot test, visual growth inhibition rate, crabgrass (DS); details: Digitaria sanguinalis, foliar
Outline: (§1)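 Seeds were sown in upland soil pots, and plants were sprayed on the foliage at a predetermined leaf stage with herbicidal compositions diluted in water at 300 L/ha. Growth inhibition was rated visually. Expected combination activity was calculated by Colby's formula to assess synergy.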

[2] = test system: velvetleaf (Abutilon theophrasti MEDIC.); test: Foliar treatment pot test, visual growth inhibition rate, velvetleaf (AT)
Outline: as §1

[3] = test system: giant foxtail (Setaria faberi Herrm.); test: Foliar treatment pot test, visual growth inhibition rate, giant foxtail (SF); details: 336 h, read-out: Growth inhibition rate (%) of SF Measured value
Source text: (§2) When the herbicidal activity in a case where two active ingredients are combined, is larger than the simple sum of the respective herbicidal activities of the two active ingredients (the expected activity), it is called a synergistic effect. The activity expected by the combination of two active ingredients can be calculated as follows (Colby S. R., “Weed”, vol. 15, p. 20-22, 1967). E=α+β−(α×β÷100) where
(§3) Upland field soil was put into a 1/1,000,000 hectare pot, and seeds of various plants (barnyardgrass (Echinochloa crus-qalli L.), crabgrass (Digitaria sanguinalis L.), giant foxtail (Setaria faberi Herrm.), velvetleaf (Abutilon theophrasti MEDIC.) and prickly sida (Sida spinosa L.)) were sown. When the respective plants reached predetermined leaf stage, herbicidal compositions in predetermined amounts were diluted with water in an amount corresponding to 300 L/ha and applied for foliar treatment by a small sprayer.
(§4) Further, in accordance with the above Colby's formula, the growth inhibition rate (calculated value) was calculated. In Tables, with respect to the compound Q, Compound Nos. in Table 1 are described, and with respect to other herbicidal compounds, common names are described. Further, in Tables, barnyardgrass is represented by “EC”, crabgrass by “DS”, giant foxtail by “SF”, velvetleaf by “AT”, and prickly sida by “SS”.

[4] = test system: barnyardgrass (Echinochloa crus-qalli L.); test: Foliar treatment pot test, visual growth inhibition rate, barnyardgrass (EC); details: 504 h, 4.0-5.0 leaf stage, 21 DAT, read-out: Growth inhibition rate (%) of EC Measured value
Source text: as §2, §3, §4

SMILES: CCn1ncc(C(=O)c2ccc(S(C)(=O)=O)c(OCCOC)c2C)c1OC(C)OC(=O)OC (centres unmarked) [NO. 4, 1-(1-ethyl-4-(3-(2-methoxyethoxy)-2-methyl-4-(methylsulfonyl)benzoyl)-1H-pyrazol-5-yloxy)ethyl methyl carbonate]
- inhibition at 7 g/ha ([1]; 336 h, read-out: Growth inhibition rate (%) of DS Measured value, 5.0-5.5 leaf stage, 14 DAT, 7 g/ha): 75%
- inhibition at 5 g/ha ([1]; 480 h, read-out: Growth inhibition rate (%) of DS Measured value, 3.6-3.8 leaf stage, 20 DAT, 5 g/ha): 40%
- inhibition at 10 g/ha ([1]; 480 h, read-out: Growth inhibition rate (%) of DS Measured value, 3.6-3.8 leaf stage, 20 DAT, 10 g/ha): 50%
- inhibition at 20 g/ha ([1]; 480 h, read-out: Growth inhibition rate (%) of DS Measured value, 3.6-3.8 leaf stage, 20 DAT, 20 g/ha): 73%
- inhibition at 5 g/ha ([1]; 480 h, read-out: Growth inhibition rate (%) of DS Measured value, 3.7-4.0 leaf stage, 20 DAT, 5 g/ha): 93%
- inhibition at 5 g/ha ([1]; 480 h, read-out: Growth inhibition rate (%) of DS Measured value, 4.0-4.2 leaf stage, 20 DAT, 5 g/ha): 40%
- inhibition at 10 g/ha ([1]; 480 h, read-out: Growth inhibition rate (%) of DS Measured value, 4.0-4.2 leaf stage, 20 DAT, 10 g/ha): 50%
- inhibition at 20 g/ha ([1]; 480 h, read-out: Growth inhibition rate (%) of DS Measured value, 4.0-4.2 leaf stage, 20 DAT, 20 g/ha): 73%
- inhibition at 5 g/ha ([1]; 480 h, read-out: Growth inhibition rate (%) of DS Measured value, 4.5-5.2 leaf stage, 20 DAT, 5 g/ha): 53%
- inhibition at 10 g/ha ([1]; 480 h, read-out: Growth inhibition rate (%) of DS Measured value, 4.5-5.2 leaf stage, 20 DAT, 10 g/ha): 89%
- inhibition at 10 g/ha ([1]; 480 h, read-out: Growth inhibition rate (%) of DS Measured value, 5.0-5.2 leaf stage, 20 DAT, 10 g/ha): 93%
- inhibition at 20 g/ha ([1]; 480 h, read-out: Growth inhibition rate (%) of DS Measured value, 5.0-5.2 leaf stage, 20 DAT, 20 g/ha): 98%
- inhibition at 5 g/ha ([1]; 480 h, read-out: Growth inhibition rate (%) of DS Measured value, 5.1-5.2 leaf stage, 20 DAT, 5 g/ha): 48%
- inhibition at 10 g/ha ([1]; 480 h, read-out: Growth inhibition rate (%) of DS Measured value, 5.1-5.2 leaf stage, 20 DAT, 10 g/ha): 73%
- inhibition at 5 g/ha ([1]; 504 h, read-out: Growth inhibition rate (%) of DS Measured value, 4.0-5.1 leaf stage, 21 DAT, 5 g/ha): 75%
- inhibition at 20 g/ha ([1]; 528 h, read-out: Growth inhibition rate (%) of DS Measured value, 4.8-5.5 leaf stage, 22 DAT, 20 g/ha): 94%
- inhibition at 7 g/ha ([1]; 552 h, read-out: Growth inhibition rate (%) of DS Measured value, 4.0-5.1 leaf stage, 23 DAT, 7 g/ha): 80%
- inhibition at 10 g/ha ([1]; 552 h, read-out: Growth inhibition rate (%) of DS Measured value, 4.5-5.3 leaf stage, 23 DAT, 10 g/ha): 87%
- inhibition at 20 g/ha ([1]; 552 h, read-out: Growth inhibition rate (%) of DS Measured value, 4.5-5.3 leaf stage, 23 DAT, 20 g/ha): 99%
- Growth inhibition rate (%) of AT Measured value ([2]; 3.0-4.0 leaf stage, 14 DAT, 15 g/ha): 80%
- Growth inhibition rate (%) of AT Measured value ([2]; 4.0-4.2 leaf stage, 20 DAT, 20 g/ha): 98%
- Growth inhibition rate (%) of AT Measured value ([2]; 4.2-4.3 leaf stage, 20 DAT, 5 g/ha): 58%
- Growth inhibition rate (%) of AT Measured value ([2]; 4.2-4.3 leaf stage, 20 DAT, 10 g/ha): 65%
- inhibition at 7 g/ha ([2]; Abutilon theophrasti, foliar, 336 h, read-out: Growth inhibition rate (%) of AT Measured value, 3.0-4.0 leaf stage, 14 DAT, 7 g/ha): 70%
- inhibition at 5 g/ha ([2]; Abutilon theophrasti, foliar, 480 h, read-out: Growth inhibition rate (%) of AT Measured value, 4.0-4.2 leaf stage, 20 DAT, 5 g/ha): 48%
- inhibition at 10 g/ha ([2]; Abutilon theophrasti, foliar, 480 h, read-out: Growth inhibition rate (%) of AT Measured value, 4.0-4.2 leaf stage, 20 DAT, 10 g/ha): 73%
- inhibition at 5 g/ha ([2]; Abutilon theophrasti, foliar, 480 h, read-out: Growth inhibition rate (%) of AT Measured value, 4.1-4.2 leaf stage, 20 DAT, 5 g/ha): 55%
- inhibition at 10 g/ha ([2]; Abutilon theophrasti, foliar, 480 h, read-out: Growth inhibition rate (%) of AT Measured value, 4.1-4.2 leaf stage, 20 DAT, 10 g/ha): 63%
- inhibition at 10 g/ha ([2]; Abutilon theophrasti, foliar, 480 h, read-out: Growth inhibition rate (%) of AT Measured value, 4.2-4.3 leaf stage, 20 DAT, 10 g/ha): 63%
- inhibition at 20 g/ha ([2]; Abutilon theophrasti, foliar, 480 h, read-out: Growth inhibition rate (%) of AT Measured value, 4.2-4.3 leaf stage, 20 DAT, 20 g/ha): 70%
- inhibition at 5 g/ha ([2]; Abutilon theophrasti, foliar, 504 h, read-out: Growth inhibition rate (%) of AT Measured value, 4.0-4.3 leaf stage, 21 DAT, 5 g/ha): 35%
- inhibition at 10 g/ha ([2]; Abutilon theophrasti, foliar, 504 h, read-out: Growth inhibition rate (%) of AT Measured value, 4.0-4.3 leaf stage, 21 DAT, 10 g/ha): 60%
- inhibition at 5 g/ha ([2]; Abutilon theophrasti, foliar, 504 h, read-out: Growth inhibition rate (%) of AT Measured value, AT 4.0-4.3 leaf stage, 21 DAT, active ingredient 5 g/ha): 35%
- inhibition at 10 g/ha ([2]; Abutilon theophrasti, foliar, 504 h, read-out: Growth inhibition rate (%) of AT Measured value, AT 4.0-4.3 leaf stage, 21 DAT, active ingredient 10 g/ha): 60%
- inhibition at 5 g/ha ([2]; Abutilon theophrasti, foliar, 528 h, read-out: Growth inhibition rate (%) of AT Measured value, 4.5-5.0 leaf stage, 22 DAT, 5 g/ha): 40%
- inhibition at 10 g/ha ([2]; Abutilon theophrasti, foliar, 528 h, read-out: Growth inhibition rate (%) of AT Measured value, 4.5-5.0 leaf stage, 22 DAT, 10 g/ha): 50%
- inhibition at 20 g/ha ([2]; Abutilon theophrasti, foliar, 528 h, read-out: Growth inhibition rate (%) of AT Measured value, 4.5-5.0 leaf stage, 22 DAT, 20 g/ha): 90%
- inhibition at 5 g/ha ([2]; Abutilon theophrasti, foliar, 552 h, read-out: Growth inhibition rate (%) of AT Measured value, 3.0-4.2 leaf stage, 23 DAT, 5 g/ha): 75%
- inhibition at 10 g/ha ([2]; Abutilon theophrasti, foliar, 552 h, read-out: Growth inhibition rate (%) of AT Measured value, 3.0-4.2 leaf stage, 23 DAT, 10 g/ha): 90%
- inhibition at 20 g/ha ([2]; Abutilon theophrasti, foliar, 552 h, read-out: Growth inhibition rate (%) of AT Measured value, 3.0-4.2 leaf stage, 23 DAT, 20 g/ha): 95%
- inhibition at 7 g/ha [3]: 75%

SMILES: CCCCCCCCSC(=O)Oc1cc(Cl)nnc1-c1ccccc1 [Pyridate, pyridate]
- inhibition at 200 g/ha ([1]; 528 h, 4.0-5.0 leaf stage, 22 DAT, 200 g/ha, read-out: Growth inhibition rate (%) of DS Measured value): 0%
- inhibition at 200 g/ha ([2]; Abutilon theophrasti, foliar, 336 h, 4.1-4.5 leaf stage, 14 DAT, 200 g/ha, read-out: Growth inhibition rate (%) of AT Measured value): 30%
- inhibition at 100 g/ha ([3]; 4.0-5.0 leaf stage, 14 DAT, 100 g/ha): 0%
- inhibition at 100 g/ha ([4]; 100 g/ha): 0%

SMILES: COC(=O)c1sccc1S(=O)(=O)NC(=O)Nc1nc(C)nc(OC)n1 [Thifensulfuron-methyl]
- inhibition at 5 g/ha ([3]; 4.0-5.0 leaf stage, 14 DAT, 5 g/ha): 0%
- inhibition at 5 g/ha ([4]; 5 g/ha): 0%
